According to patent US20130156750A1, “Compositions and Methods for Using Human YKL-40 to Treat Acute Lung Injury” (YALE UNIVERSITY, priority 2010, published 2013):

Experiments:
BEAS-2B cells = assay: In vitro oxygen exposure of BEAS-2B cells, YKL-40 expression by real-time RT-PCR; format: cell-based, human; details: 95% O2, pretreatment 10 mM 1 hour before oxygen exposure, FIG. 1G
Description: mRNA levels were assessed by real-time reverse transcriptase-polymerase chain reaction, as previously described. […] The sequences for the primers that were used were obtained from Primer Bank online (pga.mgh.harvard.edu/primerbank) Human bronchial epithelial cell line BEAS-2B cells (ATCC, Rockville, Md.) were incubated in complete bronchial epithelial basal medium (Lonza, Walkersville, Md.). They were placed in an airtight modular incubator chamber (Billups-Rothenberg, Del Mar, Calif.), which had been flushed continuously with 95% O2/5% CO2 until the oxygen level inside the chamber reached approximately 95%. The incubator chamber was then placed in a tissue culture incubator at 37° C., the O2 inside the chamber was replaced every 24 hours, and the cells were harvested at the desired time points (24-72 h). The responses in these cells were compared with events in cells incubated in 5% CO2 and air. In select experiments, the cells were incubated with N-acetyl-L-cysteine (Sigma, St. Louis, Mo.), which was added at a dose of 10 mM 1 hour before oxygen exposure, or its vehicle control.

mice exposed to 100% O2 = assay: Hyperoxic acute lung injury (100% O2 exposure) in mice; format: in vivo
Source text: BRP-39^−/− mice were generated and used as previously described (Lee et al., 2009, J Exp Med 206; 1149-1166). The mice were generated on a mixed 129/C57BL/6 background and subsequently bred for more than 10 generations onto a C57BL/6 background. Transgenic mice in which human YKL-40 was tightly and inducibly overexpressed (CC10-rtTA-tTS-YKL-40) in a lung-specific manner were generated with constructs and approaches that have been previously described. (Lee et al., 2009, J Exp Med 206:1149-1166). Mice that lacked BRP-39 and produced YKL-40 only in pulmonary epithelial cells (CC10-rtTA-tTS-YKL-40/BRP-39^−/−) were generated by breeding the CC10-rtTA-tTS-YKL-40 and BRP-39^−/− mice. Mice with caspase-3-null mutations were kindly provided by Dr. Flavell (Dept. of Immunobiology, Yale University School of Medicine). Animal protocols were approved by the Yale University Institutional Animal Care and Use Committee, the guidelines of which were followed for all experiments.
Mice (4-6 wk old) were placed in cages in an airtight Plexiglas chamber (55×40×50 cm), as described previously (Waxman et al., 1998, J Clin Invest 101:1970-1982; Ward et al., 2000, Am J Respir Cell Mol Biol 22:535-542; Wang et al., 2003, J Biol Chem 278:31226-31232). Throughout the experiment, they were given free access to food and water. Oxygen levels were constantly monitored by an oxygen sensor, which was connected to a relay switch incorporated into the oxygen supply circuit. The inside of the chamber was kept at atmospheric pressure, and mice were exposed to a 12-hour light-dark cycle. […]
Bronchoalveolar lavage (BAL; 50 μg) fluids and/or lung lysates were subjected to immunoblot analysis with antibodies against inhibitor of caspase-activated deoxyribonuclease (Chemicon International, Billerica, Mass.), caspase-3 (Cell Signaling Technology, Danvers, Mass.) or β-tubulin (Santa Cruz Biotechnology, Inc.), and the polyclonal rabbit antiserum against BRP-39, as noted above. These samples were fractionated by polyacrylamide gel electrophoresis, transferred to membranes, and evaluated as described previously (Kang et al., 2007, J Exp Med 204:1083-1093).
The levels of BRP-39 in BAL or lung lysates were evaluated by ELISA with an anti-BRP-39 rabbit polyclonal IgG for capture and biotinylated anti-BRP-39, followed by horseradish peroxidase-labeled streptavidin (GE Healthcare, Piscataway, N.J.) for detection. […] The levels of BAL fluid CXCL-1 and CCL-2 were measured by ELISA with commercial kits (R&D Systems, Minneapolis, Minn.), as directed by the manufacturer.
DNA fragmentation and cell death were evaluated with terminal deoxynucleotidyl transferase-mediated dUTP nick end labeling (TUNEL) assays, as previously described. […]

| Compound | effect on hyperoxia inhibition of YKL-40 expression (BEAS-2B cells) | survival in 100% oxygen (mice exposed to 100% O2; BRP-39−/− mice with epithelial-targeted transgenic YKL-40 (CC10-rtTA-tTS-YKL-40/BRP-39−/−), FIG. 5A) | augmented hyperoxia-induced responses (permeability, protein leak, tissue and BAL inflammation, KC/CXCL-1 and MCP-1/CCL2, TUNEL-positive cell death, caspase-3 activation) (mice exposed to 100% O2; BRP-39−/− mice with epithelial-targeted transgenic YKL-40, 100% O2, FIGS. 5B-5H) | survival in 100% O2 (mice exposed to 100% O2; CC10-rtTA-tTS-YKL-40 mice on WT genetic background, FIG. 5I) | alveolar capillary permeability alterations, protein leak, tissue and BAL inflammation, KC/CXCL-1 and MCP-1/CCL2 production, TUNEL-positive cell death, caspase-3 activation (mice exposed to 100% O2; YKL-40 Tg animals on WT genetic background, 100% O2, FIGS. 5B-5H) |
| --- | --- | --- | --- | --- | --- |
| CC(=O)N[C@@H](CS)C(=O)O [N-acetyl-L-cysteine] | abrogated the YKL-40-inhibiting effects of hyperoxia |  |  |  |  |
| YKL-40: human homolog of BRP-39, chitinase-like protein; inducibly overexpressed as a transgene in mouse lung epithelium |  | enhanced the survival | restored to levels comparable to those in WT animals | enhanced | diminished |
